Measurements: patent US5776892A, “Anti-inflammatory peptides” (Curative Health Services, Inc., priority 1994, dated 1998)
No end group written: not given here.

System: arachidonic acid induced inflammation in mouse ear
Test: Mouse ear model, arachidonic acid (AA) induced inflammation, ear thickness
Assay type: in vivo
Method: The anti-inflammatory properties of CT-112 (SEQ. ID NO: 1) were assessed using a standardized assay for anti-inflammatory activity, i.e., the mouse ear model in which arachidonic acid (AA) is used to induce an inflammatory reaction (Young et al., 1984, J. Invest. Dermatol. 82:367-371; Doherty, et al., 1988, J. Invest. Dermatol. 91:298-302).
Female mice (C57BL/6UAF, Charles River Breeding Laboratories, approximately 15-18 g) were obtained and acclimated for 2 weeks prior to use. The animals were approximately 14 weeks old at the start of the study.
To prepare minipumps for implantation, CT-112 (SEQ. ID NO: 1) was dissolved in PBS. The material was loaded into Alzet minipumps set to deliver 0.05 (5 animals), 0.1 (10 animals), 1 (10 animals), or 2.5 (5 animals) mg of CT-112 (SEQ. ID NO: 1) per animal per day. Minipumps for implantation into control animals contained only PBS. As a positive control, one set of 10 mice received 100 mg/kg of phenidone, a potent 5-lipoxygenase inhibitor which acts as an anti-inflammatory agent, 15 min prior to challenge with AA.
For subcutaneous implantation of minipumps, animals were anesthetized with Ketamine/Xylazine. The Ketamine (Aveco Lot #440140) was injected at 80 mg/kg and the Xylazine (Rugby Laboratories Lot #26040-B) at 16 mg/kg and the Alzet pumps were implanted subcutaneously in the dorsothoracic area. Animals were allowed to recover and then housed and given food and water ad libitum for 5 days.
On the sixth day following pump implantation, 0.01 ml of AA was applied to the inner and outer surfaces of the right ear by means of an automatic microliter pipette. One hr following AA application, the mice were sacrificed and ear thickness was measured with a Mitutoyo No. 7300 Gauge Caliper. The left ears were also measured as an internal control.
Mice were implanted with Alzet mini-pumps set to deliver 60 mg/kg/day for either 7, 3, or 1 days. A separate group of 5 mice received 3 intraperitoneal injections of CT-112 (60 mg/kg/injection) at 24, 1 and 0.25 hr prior to AA challenge. CT-112 (SEQ. ID NO: 1) was prepared for injection by dissolving the compound in Dulbecco's PBS to give a final CT-112 (SEQ. ID NO: 1) concentration of 5 mg/ml. The control mice were implanted with Alzet minipumps that delivered PBS for 7 days. The AA challenge was the same as described supra in Example 7.
Administration of CT-112 (SEQ. ID NO: 1) (60 mg/kg/injection) via multiple intraperitoneal injections was performed at the following times prior to AA challenge:
In addition, the effect of a single administration of CT-112 (SEQ. ID NO: 1) (60 mg/kg) by intraperitoneal injection was performed at either 1 or 3 hr prior to AA challenge. Control mice had Alzet minipumps implanted to deliver PBS for 7 days prior to AA challenge. The AA challenge was the same as described supra in Example 7. The results of the multiple dosing regimens and the 1 hr and 3 hr single dosing regimens were compared to the anti-inflammatory activity of CT-112 (SEQ. ID NO: 1) delivered via Alzet minipump set to deliver 60 mg/kg/day for 7 days using 5 animals per treatment.
In a separate experiment, the effect of multiple intraperitoneal injections of CT-112 (SEQ. ID NO: 1) at either 6, 3, 1 and 0.25 hr, or 16, 3, 1 and 0.25 hr prior to AA challenge was assessed. The results of both multi-dosing regimens were compared to both phenidone (100 mg/kg administered 15 min prior to AA challenge) and CT-112 (SEQ. ID NO: 1) administered via Alzet mini-pump (60 mg/kg/day for 7 days). For this latter study, the number of animals receiving the single injection of CT-112 (SEQ. ID NO: 1) was increased from 5 to 10.
Administration to mice of CT-112 (SEQ. ID NO: 1) (60 mg/kg/injection) via multiple subcutaneous injections prior to AA challenge was performed at:
In addition, other mice received only a single subcutaneous injection of CT-112 (SEQ. ID NO: 1) (60 mg/kg) at either 3 or 1 hr prior to AA challenge. […]

Compound | % Reduction of Ear Swelling (Table I, phenidone 100 mg/kg, 15 min prior to AA) [%] | % Inhibition (Table XII, 60 mg/kg/day via Alzet pump for 24 hr) [%] | Thickness Difference (Left-Right) (Table XIII, 60 mg/kg/day via Alzet pump for 24 hr) [in]
O=C1CCN(c2ccccc2)N1 [Phenidone, reference compound] | 84.1 | – | –
TTSHVKPQ [CT-135, ID; NO; 20] | – | 73 | 0.00178 ± 0.00073
